Assay results as given in the NIST ThermoML archive (doi:10.1007/s10765-013-1526-8).

What was measured:
[1] = xn = mol fraction of the nth substance listed; conditions: 101 kPa, Liquid; for speed of sound: Sing-around technique in a fixed-path interferometer
[2] = refractive index (Na D-line) (dimensionless); xn = mol fraction of the nth substance listed; conditions: 101 kPa, Liquid

Brc1ccccc1 [bromobenzene] + CCCCC(CC)CO
Conditions	mass density, [1] [kg/m3]	refractive index, [2]	speed of sound, [1] [m/s]	viscosity, [1] [mPa·s]
298.15 K, x1 = 0.0623	846.06	1.4348	1305	7.004
298.15 K, x1 = 0.1321	869.44	1.4416	1295	5.672
298.15 K, x1 = 0.202	895.09	1.4486	1290	4.56
298.15 K, x1 = 0.2694	924.23	1.4554	1285	3.717
298.15 K, x1 = 0.336	956.85	1.4625	1281	3.044
298.15 K, x1 = 0.3981	991.69	1.4693	1279	2.553
298.15 K, x1 = 0.4625	1031.18	1.4767	1277	2.187
298.15 K, x1 = 0.5272	1074.92	1.4844	1273	1.923
298.15 K, x1 = 0.5918	1122.9	1.4925	1268	1.728
298.15 K, x1 = 0.6627	1179.58	1.502	1259	1.594
298.15 K, x1 = 0.7278	1235.29	1.5112	1248	1.49
298.15 K, x1 = 0.7941	1295.12	1.5212	1236	1.444
298.15 K, x1 = 0.8633	1359.7	1.5325	1216	1.359
298.15 K, x1 = 0.9266	1418.41	1.5433	1194	1.266
298.15 K, x1 = 1	1488.12	1.557	1153	1.065
303.15 K, x1 = 0.0623	842.3	1.4332	1291	5.889
303.15 K, x1 = 0.1321	864.98	1.4403	1282	4.765
303.15 K, x1 = 0.202	891.19	1.4472	1276	3.838
303.15 K, x1 = 0.2694	920.76	1.4542	1272	3.126
303.15 K, x1 = 0.336	952.81	1.4611	1270	2.577
303.15 K, x1 = 0.3981	986.69	1.4678	1268	2.197
303.15 K, x1 = 0.4625	1026.09	1.475	1266	1.907
303.15 K, x1 = 0.5272	1069.83	1.4826	1264	1.702
303.15 K, x1 = 0.5918	1117.3	1.4906	1261	1.548
303.15 K, x1 = 0.6627	1173.8	1.5	1254	1.458
303.15 K, x1 = 0.7278	1229.12	1.5092	1241	1.39
303.15 K, x1 = 0.7941	1288.41	1.5191	1226	1.355
303.15 K, x1 = 0.8633	1351.6	1.5303	1206	1.297
303.15 K, x1 = 0.9266	1410.1	1.5412	1183	1.205
303.15 K, x1 = 1	1481.4	1.555	1138	1.005
308.15 K, x1 = 0.0623	837.02	1.4306	1279	5.101
308.15 K, x1 = 0.1321	859.74	1.4376	1273	4.181
308.15 K, x1 = 0.202	886.06	1.4447	1267	3.414
308.15 K, x1 = 0.2694	915.17	1.4517	1263	2.814
308.15 K, x1 = 0.336	947.49	1.4587	1259	2.35
308.15 K, x1 = 0.3981	981.89	1.4655	1254	2.004
308.15 K, x1 = 0.4625	1021.03	1.4728	1251	1.722
308.15 K, x1 = 0.5272	1064.57	1.4805	1247	1.522
308.15 K, x1 = 0.5918	1111.88	1.4886	1241	1.37
308.15 K, x1 = 0.6627	1168.02	1.4981	1232	1.265
308.15 K, x1 = 0.7278	1222.21	1.5072	1218	1.192
308.15 K, x1 = 0.7941	1279.2	1.5171	1203	1.149
308.15 K, x1 = 0.8633	1339.82	1.528	1183	1.099
308.15 K, x1 = 0.9266	1398.8	1.5388	1161	1.052
308.15 K, x1 = 1	1474.58	1.553	1122	0.972

CCCCC(CC)CO (stereo not given) [2-ethyl-1-hexanol] + Clc1ccccc1
Conditions	mass density, [1] [kg/m3]	refractive index, [2]	speed of sound, [1] [m/s]	viscosity, [1] [mPa·s]
298.15 K, x2 = 0	829.07	1.4287	1319	8.418
298.15 K, x2 = 0.0779	838.66	1.435	1313	6.736
298.15 K, x2 = 0.1381	847.37	1.44	1308	5.641
298.15 K, x2 = 0.1974	857.02	1.4453	1304	4.684
298.15 K, x2 = 0.2716	870.89	1.4523	1298	3.718
298.15 K, x2 = 0.3399	885.34	1.4591	1292	2.996
298.15 K, x2 = 0.4119	902.38	1.4666	1287	2.38
298.15 K, x2 = 0.4766	919.17	1.4734	1282	1.969
298.15 K, x2 = 0.5461	938.46	1.4807	1277	1.628
298.15 K, x2 = 0.6124	958.72	1.4879	1272	1.381
298.15 K, x2 = 0.6892	983.65	1.4961	1268	1.197
298.15 K, x2 = 0.758	1007.82	1.5034	1265	1.06
298.15 K, x2 = 0.8189	1029.88	1.5095	1264	0.969
298.15 K, x2 = 0.8888	1056.63	1.5161	1263	0.893
298.15 K, x2 = 0.9533	1081.91	1.521	1265	0.821
303.15 K, x2 = 0	825.39	1.4266	1301	7.144
303.15 K, x2 = 0.0779	834.41	1.4332	1295	5.817
303.15 K, x2 = 0.1381	842.5	1.4382	1291	4.906
303.15 K, x2 = 0.1974	852.03	1.4437	1286	4.121
303.15 K, x2 = 0.2716	865.78	1.4509	1280	3.268
303.15 K, x2 = 0.3399	880.07	1.4577	1275	2.671
303.15 K, x2 = 0.4119	897.12	1.4651	1269	2.147
303.15 K, x2 = 0.4766	914.02	1.472	1264	1.785
303.15 K, x2 = 0.5461	933.51	1.4793	1259	1.455
303.15 K, x2 = 0.6124	953.51	1.4863	1254	1.253
303.15 K, x2 = 0.6892	978.28	1.4943	1250	1.057
303.15 K, x2 = 0.758	1002.29	1.5015	1247	0.968
303.15 K, x2 = 0.8189	1024.42	1.5076	1246	0.881
303.15 K, x2 = 0.8888	1050.99	1.514	1245	0.81
303.15 K, x2 = 0.9533	1076.27	1.5186	1247	0.764
308.15 K, x2 = 0	821.68	1.4245	1283	6.09
308.15 K, x2 = 0.0779	829.62	1.4308	1277	4.854
308.15 K, x2 = 0.1381	837.63	1.4362	1273	4.032
308.15 K, x2 = 0.1974	846.84	1.4416	1268	3.363
308.15 K, x2 = 0.2716	860.76	1.4491	1263	2.689
308.15 K, x2 = 0.3399	875.1	1.4561	1257	2.171
308.15 K, x2 = 0.4119	892.15	1.4637	1252	1.749
308.15 K, x2 = 0.4766	908.93	1.4706	1247	1.45
308.15 K, x2 = 0.5461	928.26	1.4778	1242	1.221
308.15 K, x2 = 0.6124	948.46	1.4849	1237	1.068
308.15 K, x2 = 0.6892	973.49	1.4929	1233	0.96
308.15 K, x2 = 0.758	996.87	1.4998	1230	0.879
308.15 K, x2 = 0.8189	1018.95	1.5056	1228	0.824
308.15 K, x2 = 0.8888	1045.23	1.5116	1228	0.774
308.15 K, x2 = 0.9533	1070.96	1.5161	1229	0.719
